Data: patent US20040087480A1, “Calcium channel target for controlling epidermal keratinocyte growth in psoriasis, and basal and squamous cell carcinomas” (Fujisawa Pharmaceutical Co. Ltd., priority 2002, published 2004)
Where “and” joins values, the source holds several entries; their conditions need not be identical. Equal values may be shown once.

Legend:
hECaC2 [1] = experiment: Quantitative TaqMan PCR of hECaC2 mRNA (normalized to GAPDH) in cultured human epidermal keratinocytes; format: cell-based; settings: for increase in hECaC2 expression: 2 mM calcium and/or 1 μM VitD, relative to untreated, time-matched cultures
Procedure: Quantitative, TaqMan-based PCR was used to assess changes in mRNA levels for hECaC2 (normalized to GAPDH) from keratinocyte cultures grown in 2 mM calcium or 1 μM VitD over 1 and 3 days. mRNA levels are expressed as fold-changes versus levels measured in sibling cultures grown for 1 and 3 days in basal calcium (0.06 mM) and no VitD. VitD caused greater increases in hECaC2 expression than did calcium. […] Note differences in scaling of y-axes. All increases are significant from control with the exception of calcium at 1 day. Results are mean-±SEM from three experiments.
(§1) There is currently no published data on expression of either hECaC1 or hECaC2 in either primary human keratinocytes or human skin, although murine ECaC2 expression has been reported for mouse skin (Weber et al, 2001 Biochem Biophys Res Commun 289:1287-1294). Therefore, the inventors investigated if keratinocytes expressed either or both ECaC channels, and whether expression of these channels was correlated with cell differentiation stimulated by either calcium or VitD. […] However, hECaC2 expression was readily detected in these same cultures. At 1 and 3 days of culture hECaC2 expression levels were 0.014±0.002% and 0.005±0.0005% of GAPDH (N=3). […] Therefore, the observed absence of hECaC1 expression in keratinocytes was indeed due to the mRNA for this gene being at levels so low that they were undetectable.
(§2) The effects of elevated calcium or VitD on expression of hECaC1 or 2 in cultured keratinocytes were investigated. […] After 1 day in 2 mM calcium there was a small but consistent decrease in hECaC2 expression, which averaged approximately 85% of the untreated control.

hECaC1 [2] = experiment: Quantitative PCR of hECaC1 expression in cultured human keratinocytes; format: cell-based; settings: up to 3 days treatment with 2 mM calcium or 1 μM VitD
Source text: as §1, §2

hECaC2 [3] = experiment: Quantitative PCR of hECaC2 mRNA in cultured human skin biopsies (explant culture); format: cell-based; settings: 1 μM VitD in culture medium (1.4 mM calcium), versus untreated biopsies cultured the same number of days
Procedure: Skin biopsies were taken from healthy donors and cultured for the indicated times with 1 μM VitD or with vehicle added to the culture medium. mRNA levels for hECaC2 were measured by quantitative PCR, normalized to GAPDH, and fold changes in expression were calculated relative to vehicle treated controls. Results are mean±SEM from two experiments.
The effect of VitD on hECaC2 expression in skin explants over time in culture was next examined, but the dynamics of gene expression in this system had to first be defined. All experiments with explant, cultured skin biopsies were performed in medium containing 1.4 mM calcium, a requirement for long-term viability (Varani et al, 1993 Am J Pathol 142:189-198). Biopsies placed in RNALater at time of collection were used to define expression levels of these genes at “−1” days in culture. Biopsies for which RNA was extracted immediately upon arrival in the lab (after overnight shipping from the source) were designated as “0” days in culture. Data for days 1 and 3 are from biopsies which were then cultured in the lab. All biopsies for an experiment were from the same donor.

hECaC1 [4] = settings: 1 μM VitD, cultured skin biopsies
Procedure: The effect of VitD on gene expression in cultured biopsies was assessed by comparing mRNA levels in the treated biopsies to levels in untreated biopsies cultured for the same number of days (FIG. 4).

hECaC2 [5] = settings: Caco-2 cells; Wood et al, 2001; cited from earlier work
murine ECaC1 or 2 = settings: including in skin; Weber et al, 2001; cited from earlier work

Q: Which “hECaC2 expression, % of the untreated control” value (hECaC2 [1]; 1 day in 2 mM calcium) does the source give for [Ca+2] [calcium] here?
A: The value was “approximately 85%”.

Q: And the “increase in hECaC2 expression” value (hECaC2 [1]; 3 days treatment)?
A: The value was “approximately 3.8 fold”.

Q: What about the hECaC1 expression (hECaC1 [2]) of the same molecule?
A: The hECaC1 expression was “not detected”.

Q: With Vitamin D [VitD] as the molecule, how does the “increase in hECaC2 expression” value (hECaC2 [1]; 1 day treatment) read?
A: Its value is 63 fold and 60 fold.

Q: What about the “increase in hECaC2 expression” value (hECaC2 [1]; 3 days treatment) of the same molecule?
A: Its value is 51 fold.

Q: What about the hECaC1 expression (hECaC1 [2]) of the same molecule?
A: Its hECaC1 expression is “not detected”.

Q: And the “increase in hECaC2 expression” value (hECaC2 [3]; 1 day)?
A: The value was 3.6 fold.

Q: What about the “increase in hECaC2 expression” value (hECaC2 [3]; 3 days) of the same molecule?
A: Its value is 7.8 fold.

Q: What about the “hECaC1 expression in response to VitD” value (hECaC1 [4]) of the same molecule?
A: Its value is “nor was expression induced”.

Q: What about the “hECaC2 expression response to VitD” value (hECaC2 [5]) of the same molecule?
A: Its value is “upregulated”.

Q: And the “murine ECaC1 or 2 expression response to VitD” value (murine ECaC1 or 2)?
A: The value was “unresponsive”.
